Reference: article PMC5663093, “Bioprospecting of novel thermostable β-glucosidase from Bacillus subtilis RA10 and its application in biomass hydrolysis” (Biotechnology for Biofuels, 2017)

Key:
[1] = biological target: T1, BglB (β-glucosidase from B. subtilis RA10) (Bacillus subtilis, UniProt P42403); experiment: β-glucosidase activity with added glucose ([…]); assay type: biochemical; details: inhibitor (product); weak inhibition
T1 construct: gene bglC; full-length GH1 gene (1437 bp, start MIHKKQG, end TNGKSL fixed by degenerate primers) in pET28a+ (BamHI/SalI), E. coli BL21(DE3); Asn169-Glu170, nucleophile Glu377

[2] = biological target: T1, BglB (β-glucosidase from B. subtilis RA10); experiment: Michaelis-Menten nonlinear regression, p-nitrophenol release; assay type: biochemical; details: 50 mM citrate pH 5.0; 0.5-5.0 mM substrate

T1 sequence (P42403 whole entry): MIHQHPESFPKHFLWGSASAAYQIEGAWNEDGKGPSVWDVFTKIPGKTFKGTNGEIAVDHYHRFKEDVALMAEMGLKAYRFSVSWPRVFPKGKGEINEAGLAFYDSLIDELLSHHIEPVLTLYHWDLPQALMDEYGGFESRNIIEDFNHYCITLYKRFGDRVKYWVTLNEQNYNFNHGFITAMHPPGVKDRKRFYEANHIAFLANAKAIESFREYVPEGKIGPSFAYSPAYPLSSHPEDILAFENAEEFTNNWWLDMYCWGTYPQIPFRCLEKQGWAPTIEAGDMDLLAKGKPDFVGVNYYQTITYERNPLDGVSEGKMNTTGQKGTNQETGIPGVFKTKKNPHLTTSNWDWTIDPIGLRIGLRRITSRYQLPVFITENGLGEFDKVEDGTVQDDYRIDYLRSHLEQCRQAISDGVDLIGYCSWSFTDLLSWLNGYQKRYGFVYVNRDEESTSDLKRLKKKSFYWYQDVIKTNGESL

Row | % activity retained at 1000 mM [1] | Km [2] | Compound
1 | 70% | – | OC[C@H]1OC(O)[C@H](O)[C@@H](O)[C@@H]1O (stereo partly drawn) [D-glucose]
2 | – | 3.9 ± 0.2 mM | O=[N+]([O-])c1ccc(O[C@@H]2O[C@H](CO)[C@@H](O)[C@H](O)[C@H]2O)cc1 [pNPG, p-nitrophenyl-β-D-glucopyranoside]
